Values of other authors, collected in patent US20240100168A1, “LIPID COMPOSITIONS AND METHODS OF PREPARATION THEREOF” (Wake Forest University, priority 2020, published 2024).

How the values were obtained:
Details in all cases: blocks production of pro-inflammatory eicosanoids
COX1 = COX1 (Homo sapiens, UniProt P23219)
COX2 = biological target: T1, COX2 (Homo sapiens, UniProt P35354)
T1 sequence (P35354 18-604): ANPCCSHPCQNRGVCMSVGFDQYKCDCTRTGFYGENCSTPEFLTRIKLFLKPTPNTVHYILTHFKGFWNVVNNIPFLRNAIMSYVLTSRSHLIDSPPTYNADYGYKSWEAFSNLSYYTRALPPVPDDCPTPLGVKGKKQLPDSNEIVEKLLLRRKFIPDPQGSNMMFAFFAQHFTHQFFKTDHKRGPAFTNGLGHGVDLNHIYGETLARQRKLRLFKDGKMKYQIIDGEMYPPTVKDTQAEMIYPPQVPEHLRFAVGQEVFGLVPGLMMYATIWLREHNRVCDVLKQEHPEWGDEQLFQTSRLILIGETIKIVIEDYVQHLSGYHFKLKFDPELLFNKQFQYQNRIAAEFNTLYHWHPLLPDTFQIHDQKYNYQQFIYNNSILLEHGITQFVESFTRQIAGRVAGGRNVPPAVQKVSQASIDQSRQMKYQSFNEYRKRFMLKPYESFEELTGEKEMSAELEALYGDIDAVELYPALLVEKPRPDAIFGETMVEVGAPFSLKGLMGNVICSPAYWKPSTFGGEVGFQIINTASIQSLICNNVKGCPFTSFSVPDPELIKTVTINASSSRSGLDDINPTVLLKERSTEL

lipoxygenases = test system: lipoxygenases

Chain of COX1 (P23219 24-599): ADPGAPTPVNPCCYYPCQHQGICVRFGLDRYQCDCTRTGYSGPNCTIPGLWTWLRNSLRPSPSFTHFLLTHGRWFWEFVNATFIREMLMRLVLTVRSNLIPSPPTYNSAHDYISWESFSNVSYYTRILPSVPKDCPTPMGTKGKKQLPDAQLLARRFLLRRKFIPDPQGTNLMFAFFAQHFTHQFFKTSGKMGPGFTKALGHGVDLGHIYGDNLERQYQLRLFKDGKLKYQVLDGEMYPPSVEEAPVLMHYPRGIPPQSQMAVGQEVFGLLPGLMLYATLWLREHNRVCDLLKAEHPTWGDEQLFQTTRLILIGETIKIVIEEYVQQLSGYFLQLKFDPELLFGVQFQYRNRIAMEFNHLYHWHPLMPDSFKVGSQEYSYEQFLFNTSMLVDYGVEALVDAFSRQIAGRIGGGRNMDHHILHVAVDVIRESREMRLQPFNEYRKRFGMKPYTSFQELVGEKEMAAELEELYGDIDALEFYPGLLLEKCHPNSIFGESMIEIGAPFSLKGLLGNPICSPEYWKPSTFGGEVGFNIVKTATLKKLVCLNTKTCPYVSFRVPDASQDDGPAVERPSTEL

CC/C=C\C/C=C\C/C=C\C/C=C\CCCCCCC(=O)O [ETA, 8Z,11Z,14Z,17Z-eicosatetraenoic acid]
dual inhibitor: inhibition of COX1 (COX1) | inhibition of COX2 (COX2) | inhibition of lipoxygenases (lipoxygenases)
